How the values were obtained:
[1] = tested on: DM2 (5′-ATTA-3′); assay: Sequence-specific fluorescence enhancement, variable (A/T)4 core; assay type: binding; conditions: QCy-DT 2 μM, DM2 4 μM
Method: (§1) All the chemicals, reagents, single-stranded oligos (dA20, dT20, dG20, dC20), self-complementary oligos {d(ATAT)5, (D1)mix, Drew-AT, Calf-Thymus DNA (CT-DNA), (DM1, DM2, DM3, DM4, DM5, DM6 and DM7)}, RNA, were purchased from Sigma-Aldrich. ^1H and ^13C NMR spectra were recorded on a Bruker AV-400 MHz spectrometer with chemical shifts reported as parts per million (ppm) (in DMSO-d6, tetramethylsilane as an internal standard) at 20° C. UV-vis absorption and emission spectra were measured in quartz cuvettes of 1 cm path length. High resolution mass spectra (HRMS) were obtained on Agilent Technologies 6538 UHD Accurate-Mass Q-TOF LC/MS spectrometer. All biophysical studies (UV-vis, fluorescence and Cirular dichroism) are carried out at the concentration 0-5 μM of probe, volume=500 μL, temperature=25° C. and time of incubation=2 minutes. HeLa cells and MCF7 cells used in the biological studies are obtained from “Molecular reproduction, development and genetics lab, Indian institute of science, Bangalore, India”
(§2) Stock solutions of QCy-DT are prepared in double-distilled (dd) water in the order of 10^−3 M and stored at about −10° C. DNA stock solutions are prepared by dissolving oligo samples in double-distilled (dd) water in the order of 10^−4 M. Solutions of DNA duplexes are prepared in Tris-HCl (100 mM, pH=7.4) buffer solution by mixing complementary DNA strands in equimolar concentration. This solution is then subjected to annealing by heating up to about 85° C. for about 15 minutes, subsequently cooled to room temperature for about 7 hours and stored in the refrigerator (about 4° C.) for about 4 hours.
(§3) The UV-vis absorption and emission spectra are recorded on Agilent Technologies Cary series UV-vis-NIR absorbance and Cary eclipse fluorescence spectrophotometers, respectively. Thermal denaturation (UV-melting) studies are carried out on Cary 5000 UV-vis-NIR spectrophotometer equipped with Cary temperature controller in the range of 10° C. to 90° C. with a ramp rate of 1° C./min. The variable temperature/wavelength mode is used. Absorption is monitored at 260 nm with regular 5° C. intervals. Melting temperatures (Tm) of DNA samples are calculated from the first derivatives of the absorption vs. temperature curves (thermal denaturation or melting curves) obtained by monitoring at 260 nm.
(§4) Almost about ˜4-folds difference in fluorescence enhancement of QCy-DT in the presence of (A-T)20 compared to self-complementary, alternative AT-base pair containing d(ATAT)5 duplex is observed, although both contain total 20 AT base pairs (FIG. 3 and FIG. 12a). […] There are no NIR-fluorescence probes that sequence-specifically recognize the minor groove of AT-rich DNA. […] Further, QCy-DT detects all AT-rich sequences by showing varied fluorescence/sensitivity. […]

[2] = tested on: DM3 (5′-AAAA-3′); assay: as above; assay type: binding; conditions: QCy-DT 2 μM, DM3 4 μM
Method: as §1, §2, §3, §4

[3] = tested on: DM4 (5′-AATT-3′); assay: as above; assay type: binding; conditions: QCy-DT 2 μM, DM4 4 μM
Method: as §1, §2, §3, §4

[4] = tested on: DM1 (5′-ATAT-3′); assay: as above; assay type: binding; conditions: QCy-DT 2 μM, DM1 4 μM
Method: as §1, §2, §3, §4

[5] = tested on: Drew-AT; assay: Fluorescence quantum yield in presence of DNA; assay type: binding
Method: (§5) Cresyl violet perchlorate in ethanol (ϕ=0.54) is used as the standard for the fluorescence quantum yield calculation using the absorption of the test sample. The emission spectral area is obtained in the 550-800 nm regions. Dilute solutions (10^−6 M) are used to minimize reabsorption effects of the dyes. Quantum yields are determined using the following equation, ϕs=ϕr(Fs/Fr)×(Ar/As)×(ns^2/nr^2)
(§6) Where, ϕr and ϕs are the quantum yield of reference and sample respectively, Fr and Fs are the integrated intensities (areas) of standard and sample spectra, nr and ns are the refractive indices of the reference and sample solution, Ar and As are the absorbance intensities of reference and sample respectively.

[6] = tested on: d(ATAT)5; assay: Fluorescence quantum yield in presence of DNA; assay type: binding; conditions: in presence of D(ATAT)5
Method: as §5, §6

[7] = tested on: (D1)mix; assay: Fluorescence quantum yield in presence of DNA; assay type: binding
Method: as §5, §6

[8] = tested on: (A-T)20; assay: Fluorescence quantum yield in presence of DNA; assay type: binding; conditions: in presence of (A-T)20
Method: as §5, §6

[9] = Fluorescence quantum yield in absence of DNA; assay type: physicochemical
Method: as §5, §6

[10] = tested on: DNA containing 5′-GAATTC-3′ core; assay: Fluorescence enhancement, local variations 5′-X(AATT)Y-3′; assay type: binding
Method: as §1
(§7) Stock solutions of QCy-DT are prepared in double-distilled (dd) water in the order of 10^−3 M and stored at about −10° C. […]
(§8) The UV-vis absorption and emission spectra are recorded on Agilent Technologies Cary series UV-vis-NIR absorbance and Cary eclipse fluorescence spectrophotometers, respectively. […] Absorption is monitored at 260 nm with regular 5° C. intervals. Melting temperatures (Tm) of DNA samples are calculated from the first derivatives of the absorption vs. temperature curves (thermal denaturation or melting curves) obtained by monitoring at 260 nm.
(§9) To understand finer details of the interactions of QCy-DT with local variations around 5′-AATT-3′ sequence in the minor groove of DNA duplex, fluorescence studies are performed in the presence of DNA containing core hexanucleotide sequences such as 5′-X(AATT)Y-3′ (where X=A/T/G/C and Y is complementary base of X) (FIG. 5a). […] Remarkably, enormous fluorescence enhancement is observed in the presence of DNA with 5′-AAATTT-3′ core, which is ˜4-folds higher than the DNA with 5′-AATT-3′ core sequence alone. […]

[11] = tested on: 5′-TAATTA-3′; assay: as above; assay type: binding; conditions: folds lesser than 5′-AATT-3′ sequence
Method: as §1, §7, §8, §9

[12] = tested on: DNA containing 5′-CAATTG-3′ core; assay: as above; assay type: binding
Method: as §1, §7, §8, §9

Quantum Yield (ΦF) ([9]; Glycerol): ~0.07 | Quantum Yield (ΦF) ([9]; Tris-HCl buffer 100 mM, pH 7.4, probe alone): 0.0039
Structure (SMILES): C[n+]1c(/C=C/c2ccc(O)c(/C=C/c3sc4ccccc4[n+]3C)c2)sc2ccccc21 [QCy-DT, quinone cyanine-dithiazole]
fluorescence enhancement [1]: ~15 fold | fluorescence enhancement [2]: ~40 fold | fluorescence enhancement [3]: ~72 fold | fluorescence enhancement [4]: ~8 fold | Quantum Yield (ΦF) [5]: ~0.25 | Quantum Yield (ΦF) [6]: 0.08 | Quantum Yield (ΦF) [7]: 0.08 | Quantum Yield (ΦF) [8]: ~0.32 | fluorescence enhancement [10]: very weak fluorescence enhancement | fluorescence enhancement with T at X in 5′-X(AATT)Y-3′, lesser than 5′-AATT-3′ [11]: ~1.5 fold | fluorescence enhancement [12]: very weak fluorescence enhancement

From patent US10683273B2, “Compounds as DNA probes, methods and applications thereof” (JAWAHARLAL NEHRU CENTRE FOR ADVANCED SCIENTIFIC RESEARCH, priority 2015, dated 2020)
